The target in this assay is T1, RARβ2 (Homo sapiens, UniProt P10826).
T1 construct: expressed in transfected cells
T1 sequence (P10826 1-448 isoform P10826-2): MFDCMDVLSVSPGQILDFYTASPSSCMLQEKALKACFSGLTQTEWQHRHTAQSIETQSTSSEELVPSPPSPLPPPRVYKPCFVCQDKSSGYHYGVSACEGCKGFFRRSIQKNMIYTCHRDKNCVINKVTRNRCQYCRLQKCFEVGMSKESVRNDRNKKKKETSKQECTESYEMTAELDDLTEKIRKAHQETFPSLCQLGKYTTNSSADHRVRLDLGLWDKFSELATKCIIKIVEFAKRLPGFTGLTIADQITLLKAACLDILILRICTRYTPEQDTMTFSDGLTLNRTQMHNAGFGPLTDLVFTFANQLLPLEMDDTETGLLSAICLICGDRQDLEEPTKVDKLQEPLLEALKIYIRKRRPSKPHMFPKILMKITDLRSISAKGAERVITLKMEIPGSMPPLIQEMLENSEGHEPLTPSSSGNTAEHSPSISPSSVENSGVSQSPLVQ
Briefly: Receptor Selection and Amplification Technology (R-SAT) functional receptor assay. Type of assay: cell-based. From the text:
The functional receptor assay, Receptor Selection and Amplification Technology (R-SAT), was used to investigate the pharmacological properties of known and novel RARβ agonists and antagonists.
Efficacy is relative to the maximal response of the reference ligand, Am-580.

The mark [1] stands for this setting: Table 1, efficacy relative to the maximal response of the reference ligand Am-580.
The mark [2] stands for this setting: Table 1, efficacy relative to the maximal response of the reference ligand Am-580, read-out: % Eff.
Where [3] appears, read: Table 1, read-out: pEC50 (converted).
Setting [4] is: Table 2, efficacy relative to the maximal response of the reference ligand Am-580, read-out: % Eff.
Setting [5] is: Table 2, read-out: pEC50 (converted).
[6] abbreviates: Table 2, efficacy relative to the maximal response of the reference ligand Am-580.

Read-outs that look alike come from different tables or passages of the source.

As usually defined, the pEC50 is the EC50 on a negative log10 scale, so that one unit is a factor of ten. High values mean a small EC50, low ones a large EC50. Regarding “2-Fluoro-4-octyl[1,1′-biphenyl]-4-carboxylic acid [Compound 38]”, the negative logarithm of the EC50 (pEC50) (Table 1) turned out to be 6.81. For the same compound, the “% Eff.” value under setting [1] turned out to be 70%. Turning to “4-Heptyl-3-methyl[1,1′-biphenyl]-4-carboxylic acid [Compound 52]”, under “Table 1”, the pEC50 came to 6.41. In addition, the “% Eff.” value under setting [1] came to 45%. `CCCCCCCCc1ccc(-c2ccc(C(=O)O)cc2C)cc1` [Compound 1, 2-Methyl-4′-octyl[1,1′-hiphenyl]-4-carboxylic acid]: the Emax under setting [2] came to 39%. Also, the EC50 under setting [3] is 2.29 nM. The like results for `CCCCCCCCCc1ccc(-c2ccc(C(=O)O)cc2)cc1` [Compound 2, 4′-Nonyl-biphenyl-4-carboxylic acid] were, in that order, 126% and 7.94 nM.

In the case of `CCCCCc1ccc(-c2ccc(C(=O)O)cc2)cc1` [Compound 4], the pEC50 (Table 1) is 7.82. In addition, under setting [2], the Emax stood at 44%. As to `CCCCCCCCc1ccc(-c2ccc(C(=O)OCCc3ccccn3)c(F)c2)cc1` [Compound 5, 3-Fluoro-4′-octyl-biphenyl-4-carboxylic acid 2-pyridin-2-yl-ethyl ester], the Emax under setting [4] was 124%. The EC50 under setting [5] was 16.2 nM. For `CCCCCCCc1ccc(-c2ccc(C(=O)OCCc3ccccn3)c(F)c2)cc1` [Compound 7, 3-Fluoro-4′-heptyl-biphenyl-4-carboxylic acid 2-pyridin-2-yl-ethyl ester], in that order: 95% and 19.5 nM. `CCCCCCCc1ccc(-c2ccc(C(=O)O)cc2)cc1` [Compound 9] had a pEC50 (Table 1) of 7.59. Also, under setting [2], the Emax turned out to be 76%. For the compound `CCCCCCCc1ccc(-c2ccc(C(=O)O)cc2)cc1` [Compound 10, 4′-Heptyl[1,1′-biphenyl]-4-carboxylic acid], the “% Eff.” value under setting [1] amounted to 64%. Under setting [3], the EC50 is 26.3 nM. Turning to `CCCCCCOc1cc(C)c(-c2ccc(C(=O)O)cc2)cc1C` [Compound 11, 4′-(Hexyloxy)-2′,5′-dimethyl[1,1′-biphenyl]-4-carboxylic acid], the Emax under setting [2] worked out at 78%. Also, the EC50 under setting [3] is 27.5 nM. In the case of `CCCCCCOc1ccc(-c2ccc(C(=O)O)cc2)cc1` [Compound 12], for the setting “Table 1”, the pEC50 turned out to be 7.54. In addition, the Emax under setting [2] was found to be 72%. For `CCCCCCNC(=O)COc1nc(-c2ccc(C(=O)O)cc2)sc1C` [Compound 13, 4-(4-Hexylcarbamoylmethoxy-5-methyl-thiazol-2-yl)-benzoic acid], under setting [2], the Emax amounted to 85%. Also, the EC50 under setting [3] was 41.7 nM. On to `CCCCCCCCc1ccc(-c2ccc(C(=O)OCCc3ccccn3)cc2)cc1` [Compound 14], for which the pEC50 (Table 2) is reported as 7.38. Also, under setting [6], the “% Eff.” value is 93%.

`CCCCCCCCc1ccc(-c2ccc(C(=O)n3cnc(NC(C)=O)n3)cc2)cc1` [Compound 15] showed a pEC50 (Table 1) of 7.37. The Emax under setting [2] is 76%. `CCCCCCc1ccc(-c2ccc(C(=O)O)cc2)cc1` [Compound 16] showed a pEC50 (Table 1) of 7.34. Further, under setting [2], the Emax was found to be 37%. For `CCCCCCCc1ccc(-c2ccc(C(=O)OCc3ccco3)cc2)cc1` [Compound 17, 4′-Heptyl-biphenyl-4-carboxylic acid furan-2-ylmethyl Ester], under setting [6], the “% Eff.” value turned out to be 33%. Besides, the EC50 under setting [5] is 45.7 nM. As for `CCCCOCCOc1ccc(-c2ccc(C(=O)O)cc2)cc1` [Compound 18, 4′-(2-Butoxyethoxy)-[1,1-biphenyl]-4-carboxylic acid], the Emax under setting [2] turned out to be 108%. The EC50 under setting [3] is 47.9 nM.

For `CCCCCCCc1ccc(-c2ccc(C(=O)OCCC#N)cc2)cc1` [Compound 19, 4′-Heptyl-biphenyl-4-carboxylic acid 2-cyano-ethyl ester], the Emax under setting [4] was 36%. Besides, the EC50 under setting [5] was 52.5 nM.

For the setting “Table 1”, `CCCCCCCCCCOc1ccc(-c2ccc(C(=O)O)cc2)cc1` [Compound 20] displayed a pEC50 of 7.26. For the same compound, the Emax under setting [2] was 98%. Take `CCCCCCCc1ccc(-c2ccc(C(=O)OCc3ccco3)cc2)cc1` [Compound 21]: the pEC50 (Table 2) is listed as 7.26. Besides, the “% Eff.” value under setting [6] is listed as 106%. Turning to `CCCCCCCc1ccc(-c2ccc(C(=O)O)cc2F)cc1` [Compound 22, 2-Fluoro-4′-heptyl[1,1′-biphenyl]-4-carboxylic acid], under setting [2], the Emax worked out at 36%. Also, the EC50 under setting [3] is 57.5 nM. In the case of `CCCCCCCOc1ccc(-c2ccc(C(=O)OCCC#N)cc2)cc1` [Compound 23, 4′-Heptyloxy-biphenyl-4-carboxylic acid 2-cyano-ethyl ester], under setting [4], the Emax came out at 46%. The EC50 under setting [5] was 60.3 nM. In turn, `CCCCCCCOc1ccc(-c2ccc(C(=O)O)cc2)cc1` [Compound 24] displayed a pEC50 (Table 1) of 7.21. Moreover, the Emax under setting [2] came to 58%. `CC(C)CCCCOc1ccc(-c2ccc(C(=O)O)cc2)cc1` [Compound 25, 4′-(5-Methyl-hexyloxy)-biphenyl-4-carboxylic acid]: for the setting “Table 1”, the pEC50 stood at 7.20. The Emax under setting [2] was 65%.

Take `O=C(O)c1ccc(-c2ccc(OCCC=C(C3CC3)C3CC3)cc2)cc1` [Compound 26, 4′[(4,4-Dicyclopropyl-3-butenyl)oxy][1,1-biphenyl]-4-carboxylic acid]: under setting [1], the “% Eff.” value is 36%. On to `CCCCOCCOc1nc(-c2ccc(C(=O)O)cc2)sc1C` [Compound 27, 4-[4-(2-Butoxy-ethoxy)-5-methyl-thiazol-2-yl]-benzoic acid], for which, under setting [2], the Emax is 95%. Under setting [3], the EC50 was 75.9 nM.

Compound `CCCCCCCCc1ccc(-c2ccc(C(=O)OCCc3ccccn3)cc2)cc1` [Compound 28] showed a pEC50 (Table 2) of 7.09. Further, the “% Eff.” value under setting [6] is listed as 70%. With `CCCCCCCCc1ccc(-c2ccc(C(=O)Nc3ccc(C)cn3)cc2)cc1` [Compound 29], where the note is “Table 1”, the pEC50 is reported as 7.08. In addition, the Emax under setting [2] amounted to 78%.

As for `CCCCCCCOc1ccc(-c2ccc(C(=O)OCCc3ccccn3)cc2)cc1` [Compound 30, 4′-Heptyloxy-biphenyl-4-carboxylic acid 2-pyridin-2-yl-ethyl ester], the Emax under setting [4] stood at 62%. The EC50 under setting [5] was 91.2 nM. As to `CCCCCCCCc1ccc(-c2ccc(C(=O)C(=O)O)cc2)cc1` [Compound 31, (4′-Octyl-biphenyl-4-yl)-oxo-acetic acid], the Emax under setting [2] amounted to 80%. Moreover, under setting [3], the EC50 is 95.5 nM. `CCCCCCCCOc1ccc(-c2ccc(C(=O)O)cc2)cc1` [Compound 32]: for the setting “Table 1”, the pEC50 stood at 7.02. The Emax under setting [2] stood at 70%.

`CCCOCCOc1nc(-c2ccc(C(=O)O)cc2)sc1C` [Compound 33, 4-[5-Methyl-4-(2-propoxy-ethoxy)-thiazol-2-yl]-benzoic acid]: under setting [2], the Emax stood at 98%. Besides, the EC50 under setting [3] is 110 nM. On to `CCCCCCCCc1ccc(-c2ccc(C(=O)OCCC#N)cc2)cc1` [Compound 34, 4′-Octyl-biphenyl-4-carboxylic acid 2-cyano-ethyl ester], for which the Emax under setting [4] stood at 71%. In addition, under setting [5], the EC50 was 112 nM.

Compound `CCCCCCCCc1ccc(-c2ccc(C(=O)O)cc2)cc1` [Compound 35] had a pEC50 (Table 1) of 6.94. In addition, the “% Eff.” value under setting [1] is recorded as 83%.

Take `CCCCCCCc1ccc(-c2ccc(C(=O)O)c(F)c2)cc1` [Compound 36, 3-Fluoro-4′-heptyl[1,1′-biphenyl]-4-carboxylic acid]: under setting [2], the Emax stood at 42%. For the same compound, the EC50 under setting [3] is 123 nM.

For the compound `CCCCCCCc1ccc(-c2ccc(C(=O)NO)cc2)cc1` [Compound 37, 4′-Heptyl-biphenyl-4-carboxylic acid hydroxyamide], the Emax under setting [2] came to 49%. The EC50 under setting [3] was 135 nM. On to `CCCCCCCOc1ccc(-c2ccc(C(=O)OCCC#N)cc2)cc1` [Compound 39, 4′-Heptyloxy-biphenyl-4-carboxylic acid 2-cyano-ethyl ester], for which the “% Eff.” value under setting [6] was 42%. Moreover, under setting [5], the EC50 is 174 nM. For the compound `CCCCCCCCc1ccc(-c2ccc(C(=O)OCCc3ccccn3)cc2)cc1` [Compound 40], for the setting “Table 2”, the pEC50 was determined as 6.75. Besides, the “% Eff.” value under setting [6] stood at 82%. As to `CCCCCCOc1ccc(-c2ccc(C(=O)OCc3ccco3)cc2)cc1` [Compound 41, 4′-Hexyloxy-biphenyl-4-carboxylic acid furan-2-ylmethyl ester], the Emax under setting [4] turned out to be 25%. The EC50 under setting [5] was 178 nM. `CCCCCCCCOc1ccc(-c2ccc(C(=O)OCCC#N)cc2)cc1` [Compound 42, 4′-Octyloxy-biphenyl-4-carboxylic acid 2-cyano-ethyl ester]: the Emax under setting [4] turned out to be 46%. In addition, the EC50 under setting [5] was 195 nM. For `CCCCCCCCOc1ccc(-c2ccc(C(=O)OCc3ccco3)cc2)cc1` [Compound 43, 4′-Octyloxy-biphenyl-4-carboxylic acid furan-2-ylmethyl ester], in that order: 67% and 214 nM. For the compound `CCCCOCCOc1cc(C)c(-c2ccc(C(=O)O)cc2)cc1C` [Compound 44, 4′-(2-Butoxyethoxy)-2′,5′-dimethyl[1,1-biphenyl]-4-carboxylic acid], the Emax under setting [2] worked out at 41%. The EC50 under setting [3] is 245 nM.

Turning to `CCCCCCCc1ccc(-c2ccc(C(=O)NN)cc2)cc1` [Compound 45, 4′-Heptyl-biphenyl-4-carboxylic acid hydrazide], under setting [2], the Emax is 78%. Further, the EC50 under setting [3] is 257 nM.

The record behind these values is patent publication US20090176837A1, “COMPOUNDS WITH ACTIVITY AT RETINOIC ACID RECEPTORS” (SONY CORPORATION, priority 2006, published 2009).
